Entries after “also recorded” stand apart in the source; their conditions may differ.
Experiments:
ESE-1 = target: T1, ESE-1 (Homo sapiens, UniProt P78545); assay: ESE-1 dependent reporter assay in HEK293 cells; type: cell-based; details: 48 hours
T1 construct: expressed in transfected cells; host or cells: HEK293
T1 sequence (P78545 1-371): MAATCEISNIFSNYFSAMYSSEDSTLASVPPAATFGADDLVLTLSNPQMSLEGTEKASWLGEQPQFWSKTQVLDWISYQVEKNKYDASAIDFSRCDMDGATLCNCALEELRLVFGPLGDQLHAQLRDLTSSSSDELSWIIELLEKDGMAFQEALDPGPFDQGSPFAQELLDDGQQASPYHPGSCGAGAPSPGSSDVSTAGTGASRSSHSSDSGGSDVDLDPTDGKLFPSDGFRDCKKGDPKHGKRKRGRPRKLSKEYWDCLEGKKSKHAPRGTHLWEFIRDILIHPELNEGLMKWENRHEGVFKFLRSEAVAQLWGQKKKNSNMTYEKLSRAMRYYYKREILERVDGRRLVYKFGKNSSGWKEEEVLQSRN
Procedure: (§1) HEK293 cells were transiently transfected with empty vector (for the NT) or ERG-expressing plasmid as well as pRL-TK (internal control) and PUx3-Luc reporter. Cells were then exposed to DMSO vehicle or compounds at designated doses for 48 hours. Experiments were done in triplicate.
Experiments were done as described above in FIG. 1.1a) except that ERG plasmid was replaced by ESE-1 plasmid.

[1] = test system: EZH2, c-Myc and ERG expression in VCaP cells; assay: Expression of EZH2, c-Myc and ERG in VCaP cells; type: cell-based; details: 10 μM, 72 hours
Procedure: VCaP cells were exposed to DMSO vehicle control, 648, 698 and 891 at 10 μM for 72 hours in DMEM medium plus 10% FBS or phenol red-free DMEM medium plus 10% charcoal-stripped FBS (CS-FBS).

human STING (hSTING) = target: T2, human STING (hSTING) (Homo sapiens, UniProt Q86WV6); assay: hSTING ISRE-luc reporter assay in 293T cells; type: cell-based; details: 24 hours
T2 construct: expressed in transfected cells; host or cells: 293T
Procedure: ISRE-luc (reporter), pRL-TK (internal control) and hSTING-expressing plasmids were transiently transfected into 293T cells. Cells were exposed to DMSO vehicle control or compounds for 24 hours. Experiments were done in triplicate.

ERG = target: T3, ERG (Homo sapiens, UniProt P11308); assay: ERG-dependent reporter assay in HEK293 cells; type: cell-based; parameters: expressed in transfected cells; host or cells: HEK293; details: PUx3-Luc reporter, 48 hours, designated doses
T3 sequence (P11308 1-486 isoform P11308-3): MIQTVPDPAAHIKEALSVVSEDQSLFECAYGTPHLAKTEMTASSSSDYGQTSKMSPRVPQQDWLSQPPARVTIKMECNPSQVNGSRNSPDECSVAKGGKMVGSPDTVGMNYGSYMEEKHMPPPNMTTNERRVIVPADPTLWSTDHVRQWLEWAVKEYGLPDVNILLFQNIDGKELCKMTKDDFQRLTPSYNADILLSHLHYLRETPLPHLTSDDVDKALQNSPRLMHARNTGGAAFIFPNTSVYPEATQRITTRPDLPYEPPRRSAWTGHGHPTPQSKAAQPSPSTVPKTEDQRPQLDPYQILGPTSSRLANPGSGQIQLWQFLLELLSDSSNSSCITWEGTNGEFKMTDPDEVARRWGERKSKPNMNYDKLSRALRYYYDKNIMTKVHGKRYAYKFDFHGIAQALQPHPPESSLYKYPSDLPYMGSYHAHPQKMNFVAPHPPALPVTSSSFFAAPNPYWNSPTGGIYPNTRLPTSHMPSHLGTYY
Procedure: as §1

hSTING and/or mSTING = assay: hSTING- or mSTING-dependent ISRE-luc reporter assay in 293T cells; type: cell-based; details: 24 hours
Procedure: ISRE-luc (reporter), pRL-TK (internal control) and hSTING- or mSTING-expressing plasmids were transiently transfected into 293T cells. Cells were exposed to DMSO vehicle control or compounds for 24 hours. Experiments were done in triplicate.

[2] = test system: interferon signaling pathway in THP-1 cells; assay: Western blot, interferon signaling in THP-1 cells; type: cell-based; details: 16 hours
Procedure: THP1 cells were treated for 16 hours with the indicated concentration (μM) of compounds or DMSO vehicle control. Whole-cell extracts were prepared and subjected to Western blot analysis with the antibodies as indicated.

[3] = target: T4, recombinant protein of human GATA2 (Homo sapiens, UniProt P23769); assay: SPR analysis on amine-coupled GATA2; type: binding; details: 50 μM each
T4 sequence (P23769 1-480): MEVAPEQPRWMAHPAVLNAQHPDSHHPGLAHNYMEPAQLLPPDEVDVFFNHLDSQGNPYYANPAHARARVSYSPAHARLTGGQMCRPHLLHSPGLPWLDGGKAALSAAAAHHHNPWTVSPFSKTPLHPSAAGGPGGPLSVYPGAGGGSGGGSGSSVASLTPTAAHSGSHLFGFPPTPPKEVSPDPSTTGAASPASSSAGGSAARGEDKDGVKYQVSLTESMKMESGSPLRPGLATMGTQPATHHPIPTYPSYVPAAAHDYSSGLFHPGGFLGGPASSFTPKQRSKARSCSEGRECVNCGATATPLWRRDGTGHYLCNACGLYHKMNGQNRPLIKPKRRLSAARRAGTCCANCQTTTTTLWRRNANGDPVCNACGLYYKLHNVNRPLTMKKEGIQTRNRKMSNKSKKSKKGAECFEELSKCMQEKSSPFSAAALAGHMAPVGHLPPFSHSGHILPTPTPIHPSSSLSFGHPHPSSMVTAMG
Text: In embodiments of the invention, the androgen-bound AR is regressing GATA2 expression and inhibition of AR via castration or use of antiandrogen releases such expression. […] Overexpression of GATA2 confers resistance to antiandrogen bicalutamide (Bic) (FIG. 2.9). Compound 673 is effective against the LNCaP stably transfected with GATA2-expressing plasmid (referred to as LNCaP-GATA2 cells) (FIG. 2.8).

mouse STING (mSTING) = target: T5, mouse STING (mSTING) (Mus musculus, UniProt Q3TBT3); assay: mSTING ISRE-luc reporter assay in 293T cells; type: cell-based; details: 24 hours
T5 construct: expressed in transfected cells; host or cells: 293T
T5 sequence (Q3TBT3 1-378): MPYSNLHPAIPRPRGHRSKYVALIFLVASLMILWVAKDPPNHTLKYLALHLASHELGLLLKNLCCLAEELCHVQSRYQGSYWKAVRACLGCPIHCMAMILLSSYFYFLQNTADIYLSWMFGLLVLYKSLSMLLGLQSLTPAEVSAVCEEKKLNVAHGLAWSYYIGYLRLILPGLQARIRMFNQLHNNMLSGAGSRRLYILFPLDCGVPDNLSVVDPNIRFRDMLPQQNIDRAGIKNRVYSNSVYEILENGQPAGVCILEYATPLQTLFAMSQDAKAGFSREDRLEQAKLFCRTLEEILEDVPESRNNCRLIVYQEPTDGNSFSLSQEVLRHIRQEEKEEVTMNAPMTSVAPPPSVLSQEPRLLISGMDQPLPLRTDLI
Procedure: ISRE-luc (reporter), pRL-TK (internal control) and mSTING-expressing plasmids were transiently transfected into 293T cells. Cells were exposed to DMSO vehicle control or compounds for 24 hours. Experiments were done in triplicate.

human GATA2 = target: T6, human GATA2 (Homo sapiens, UniProt P23769); assay: GATA2-dependent reporter assay in IHH cells; type: cell-based; details: GATA-Luc reporter, 48 h
T6 construct: expressed in transfected cells; host or cells: IHH
T6 sequence (P23769 1-480): T4 sequence (P23769 1-480)
Procedure: K7174 is a known GATA2 inhibitor. The IHH cells were transiently transfected with empty vector (for the NT) or human GATA2-expressing plasmid as well as pRL-TK (internal control) and GATA-Luc reporter plasmids. Cells were exposed to DMSO vehicle or compounds for 48 h. Experiments were in triplicate.

[4] = test system: phosphorylation of ERK in Panc 10.05 cells; assay: Western blot, phosphorylation of ERK in Panc 10.05 cells; type: cell-based; details: 10 μM, 24 hours
Procedure: C-PARP, cleaved PARP. Panc10.05 cells were exposed to DMSO vehicle or compounds at designated doses for 24 hours.
Panc10.05 cells were exposed to DMSO vehicle or compounds at designated doses for 24 hours.

[5] = test system: phosphorylation of ERK in HCT-116 cells; assay: Western blot, phosphorylation of ERK in HCT-116 cells; type: cell-based; details: 10 μM, 24 hours
Procedure: HCT-116 cells were exposed to DMSO vehicle or compounds at designated doses for 24 hours.

T2 sequence (Q86WV6 whole entry H232R): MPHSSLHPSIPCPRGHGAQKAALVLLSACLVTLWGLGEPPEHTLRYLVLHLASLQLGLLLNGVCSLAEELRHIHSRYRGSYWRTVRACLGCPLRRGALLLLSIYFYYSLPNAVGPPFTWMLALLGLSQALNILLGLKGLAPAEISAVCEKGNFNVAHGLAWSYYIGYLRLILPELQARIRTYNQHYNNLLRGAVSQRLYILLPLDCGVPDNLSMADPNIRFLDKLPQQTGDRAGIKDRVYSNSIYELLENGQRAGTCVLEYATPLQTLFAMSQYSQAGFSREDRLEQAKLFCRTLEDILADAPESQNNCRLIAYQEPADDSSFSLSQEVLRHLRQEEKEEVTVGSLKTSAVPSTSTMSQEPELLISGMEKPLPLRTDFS

Oc1ccc(-c2nc(Cc3c[nH]c4ccccc34)oc2-c2ccc(O)cc2)cc1 [Compound 698]
ESE-1 inhibition in ESE-1 dependent reporter assay (ESE-1): ESE-1 inhibitors
inhibition of expression of EZH2, c-Myc and ERG [1]: inhibit expression of EZH2, c-Myc and ERG
activation of hSTING in ISRE-luc reporter assay (human STING (hSTING)): activate hSTING
ERG inhibition in ERG-dependent reporter assay (ERG): ERG inhibitors

Fc1cccc(-c2nc(CNCCc3c[nH]c4ccccc34)[nH]c2-c2cccc(F)c2)c1 [Compound 874]
activation of hSTING and/or mSTING in ISRE-luc reporter assay (hSTING and/or mSTING): activate hSTING and/or mSTING
activation of hSTING and/or mSTING in ISRE-luc reporter assay (hSTING and/or mSTING; 10 μM): activate hSTING and/or mSting
activation of interferon signaling pathway (Western blot) [2]: activate interferon signaling pathway

Fc1ccccc1CSc1ncnc2c1ncn2C1CCCO1 (stereo not shown) [Compound V131]
ESE-1 inhibition in ESE-1 dependent reporter assay (ESE-1): ESE-1 inhibitors
ERG inhibition in ERG-dependent reporter assay (ERG): potent inhibitor of ERG; also recorded: ERG inhibitors

COc1ccc(-c2nc(CCCc3c[nH]c4ccccc34)oc2-c2ccc(OC)cc2)cc1 [Compound 670]
binding to amine-coupled GATA2 (SPR) [3]: Direct binding; also recorded: Specific binding
activation of hSTING in ISRE-luc reporter assay (human STING (hSTING)): activate human STING (hSTING)

COc1cccc(-c2nc(CCCc3c[nH]c4ccccc34)oc2-c2cccc(OC)c2)c1 [Compound 640]
activation of hSTING in ISRE-luc reporter assay (human STING (hSTING)): activate human STING (hSTING)
activation of mSTING in ISRE-luc reporter assay (mouse STING (mSTING)): activate mouse STING (mSTING)

O=C(CC(O)(CCc1ccccc1)c1ccccc1)N1CCC(O)(c2ccccc2)CC1 (stereo not shown) [Compound V248]
GATA2 inhibition in GATA2-dependent reporter assay (human GATA2): GATA2 inhibitors
binding to amine-coupled GATA2 (SPR) [3]: Direct binding; also recorded: Specific binding

N#CCN(CCc1c[nH]c2ccccc12)Cc1nc(-c2ccccc2)c(-c2ccccc2)[nH]1 [Compound 1187]
suppression of phosphorylation of ERK (Western blot) [4]: potently suppressed phosphorylation of ERK
suppression of phosphorylation of ERK (Western blot) [5]: potently suppressed phosphorylation of ERK

Oc1ccccc1-c1nc(Cc2c[nH]c3ccccc23)oc1-c1ccccc1O [Compound 891]
inhibition of expression of EZH2, c-Myc and ERG [1]: inhibit expression of EZH2, c-Myc and ERG

COc1cccc(-c2oc(CCCc3c[nH]c4ccccc34)nc2-c2ccco2)c1 [Compound 840]
GATA2 inhibition in GATA2-dependent reporter assay (human GATA2): GATA2 inhibitors
activation of hSTING in ISRE-luc reporter assay (human STING (hSTING)): activate hSTING
activation of interferon signaling pathway (Western blot) [2]: activate interferon signaling pathway

FC(F)(F)c1cccc(-c2nc(CCCc3c[nH]c4ccccc34)oc2-c2cccc(C(F)(F)F)c2)c1 [Compound 681]
activation of hSTING in ISRE-luc reporter assay (human STING (hSTING)): activate human STING (hSTING)
activation of mSTING in ISRE-luc reporter assay (mouse STING (mSTING)): activate mouse STING (mSTING)

Fc1cccc(-c2oc(CCCc3c[nH]c4ccccc34)nc2-c2ccco2)c1 [Compound 834]
GATA2 inhibition in GATA2-dependent reporter assay (human GATA2): GATA2 inhibitors
activation of hSTING in ISRE-luc reporter assay (human STING (hSTING)): activate hSTING
activation of interferon signaling pathway (Western blot) [2]: activate interferon signaling pathway

Fc1cccc(-c2nc(CCc3c[nH]c4ccccc34)oc2-c2cccc(F)c2)c1 [Compound 761]
activation of hSTING in ISRE-luc reporter assay (human STING (hSTING)): activate human STING (hSTING)
activation of mSTING in ISRE-luc reporter assay (mouse STING (mSTING)): activate mouse STING (mSTING)
activation of interferon signaling pathway (Western blot) [2]: activate interferon signaling pathway

FC(F)(F)c1ccc(-c2nc(CCCc3c[nH]c4ccccc34)oc2-c2ccc(C(F)(F)F)cc2)cc1 [Compound 672]
activation of hSTING in ISRE-luc reporter assay (human STING (hSTING)): activate human STING (hSTING)
activation of mSTING in ISRE-luc reporter assay (mouse STING (mSTING)): activate mouse STING (mSTING)

c1ccc(CN2CCN(Cc3nc(-c4ccccc4)c(-c4ccccc4)o3)CC2)cc1 [Compound 1176]
activation of hSTING and/or mSTING in ISRE-luc reporter assay (hSTING and/or mSTING): activate hSTING and/or mSTING
activation of hSTING and/or mSTING in ISRE-luc reporter assay (hSTING and/or mSTING; 10 μM): activate hSTING and/or mSTING
activation of interferon signaling pathway (Western blot) [2]: activate interferon signaling pathway

Reference: patent US10844051B2, “Substituted oxazoles for the treatment of cancer” (THE ROYAL INSTITUTION FOR THE ADCANCEMENT OF …, priority 2015, dated 2020)
